Laboratory results taken from paper PMC8243409 (Journal of chemical information and modeling, 2021).
pIC50: −log10 of the molar value.

Biological target: E. coli dihydrofolate reductase (DHFR) (Escherichia coli, UniProt P0ABQ4)
Test: steady-state kinetics dose response
Format: biochemical

Sequence of E. coli dihydrofolate reductase (DHFR) (P0ABQ4 whole entry): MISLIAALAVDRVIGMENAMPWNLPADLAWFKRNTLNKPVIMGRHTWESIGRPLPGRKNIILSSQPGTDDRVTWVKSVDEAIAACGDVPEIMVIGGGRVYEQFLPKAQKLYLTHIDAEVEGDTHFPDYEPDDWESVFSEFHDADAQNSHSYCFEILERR

Q: How did the pIC50 turn out when `COc1cc2c(Nc3ccc(Br)cc3F)ncnc2cc1OCC1CCN(C)CC1` [NSC760766, Vandetanib] was run?
A: Its pIC50 is ~4.41.
